From US11098010B2 (priority 2017, dated 2021)
Where a name gives a salt, the structure may show the parent alone.

Test system: HBV rcDNA in HepDE19 cells
Experiment: HepDE19 assay with bDNA quantitation of HBV rcDNA
Type: cell-based, hepatitis B virus (HBV)
Settings: HepDE19 cells, inhibition of rcDNA formation, 7 day incubation, top concentration 25 μM; read-out: DE-19 bDNA EC50

Compound | EC50
O=C(N[C@H]1CCc2c(C(=O)Nc3ccc(F)c(Cl)c3)ccc(F)c21)OCCF [Compound 76, O-2-Fluoroethyl, N—(S)-(4-((3-chloro-4-fluorophenyl)carbamoyl)-7-fluoro-2,3-dihydro-1H-inden-1-yl) carbamate] | 0.11 µM
CC(C)n1nccc1COC(=O)N[C@H]1CCc2c(C(=O)Nc3ccc(F)c(Cl)c3)ccc(F)c21 [Compound 106, O-(1-Isopropyl-1H-pyrazol-5-yl)methyl, N—(S)-(4-((3-chloro-4-fluorophenyl)carbamoyl)-7-fluoro-2,3-dihydro-1H-inden-1-yl) carbamate] | 0.17 µM
O=C(NC1CCc2c(C(=O)Nc3ccc(F)c(Cl)c3)cncc21)OCc1ccccn1 (stereo not shown) [Compound 270, O-Pyridin-2-ylmethyl, N-(4-((3-chloro-4-fluorophenyl)carbamoyl)-6,7-dihydro-5H-cyclopenta[c]pyridin-7-yl) carbamate] | 1.1 µM

Same assay, conditions: Hepatitis B virus, HepDE19, 168 h, HepDE19 cells, inhibition of rcDNA formation, 7 day incubation, top concentration 25 μM; read-out: DE-19 bDNA EC50

Compound | EC50
CCCS(=O)(=O)N[C@H]1CCc2c(C(=O)Nc3ccc(F)c(Cl)c3)ccc(F)c21 [Compound 233, (S)—N-(3-Chloro-4-fluorophenyl)-7-fluoro-1-(propylsulfonamido)-2,3-dihydro-1H-indene-4-carboxamide] | 0.33 µM
O=C(NCc1ccccn1)O[C@H]1CCc2c(C(=O)Nc3ccc(F)c(Cl)c3)ccc(F)c21 [Compound 74, N—(S)-4-((3-Chloro-4-fluorophenyl)carbamoyl)-7-fluoro-2,3-dihydro-1H-inden-1-yl, O-(pyridin-2-ylmethyl) carbamate] | 1.6 µM
O=C(Nc1ccc(F)c(Cl)c1)c1cccc2c1CN(CCO)S2(=O)=O [Compound 276, N-(3-Chloro-4-fluorophenyl)-2-(2-hydroxyethyl)-2,3-dihydrobenzo[d]isothiazole-4-carboxamide 1,1-dioxide] | 1.4 µM
Cc1cc(NC(=O)c2ccc(F)c3c2OCC3NC(=O)OCc2ccccn2)ccc1F (single isomer, unassigned) [Compound 206, O-Pyridin-2-ylmethyl, N-(4-fluoro-7-((4-fluoro-3-methylphenyl)carbamoyl)-2,3-dihydrobenzofuran-3-yl)carbamate] | 0.41 µM
O=C(N[C@H]1CCc2c(C(=O)Nc3ccc(F)c(Cl)c3)ccc(F)c21)O[C@@H]1CCOC1 [Compound 170, O—(R)-Tetrahydrofuran-3-yl, N—((S)-4-((3-chloro-4-fluorophenyl)carbamoyl)-7-fluoro-2,3-dihydro-1H-inden-1-yl) carbamate] | 0.26 µM
COC1Cc2c(C(=O)Nc3ccc(F)c(Cl)c3)ccc(F)c2C1NC(=O)OCc1ccccn1 (stereo not shown) [Compound 247, O-pyridin-2-ylmethyl, N-(4-((3-chloro-4-fluorophenyl)carbamoyl)-7-fluoro-2-methoxy-2,3-dihydro-1H-inden-1-yl)carbamate] | 0.68 µM
CNC(=O)NC1CCc2c(C(=O)Nc3ccc(F)c(Cl)c3)ccnc21 (stereo not shown) [Compound 263, N-(3-Chloro-4-fluorophenyl)-7-(3-methylureido)-6,7-dihydro-5H-cyclopenta[b]pyridine-4-carboxamide] | 1.9 µM
O=C(N[C@H]1CCc2c(C(=O)Nc3ccc(F)c(Cl)c3)ccc(F)c21)OCc1cncs1 [Compound 91, O-Thiazol-5-ylmethyl, N—(S)-(4-((3-chloro-4-fluorophenyl)carbamoyl)-7-fluoro-2,3-dihydro-1H-inden-1-yl) carbamate] | 0.07 µM
CNC(=O)NC1(C)CCc2c(C(=O)Nc3ccc(F)c(Cl)c3)ccc(F)c21 (single isomer, unassigned) [Compound 215, N-(3-Chloro-4-fluorophenyl)-7-fluoro-1-methyl-1-(3-methylureido)-2,3-dihydro-1H-indene-4-carboxamide] | 3.8 µM
Cc1cccc(COC(=O)N[C@H]2CCc3c(C(=O)Nc4ccc(F)c(Cl)c4)ccc(F)c32)n1 [Compound 73, O-(6-Methylpyridin-2-yl)methyl, N—(S)-(4-((3-chloro-4-fluorophenyl)carbamoyl)-7-fluoro-2,3-dihydro-1H-inden-1-yl) carbamate] | 0.25 µM
O=C(Nc1ccc(F)c(Cl)c1)c1cncc2c1CCC2NS(=O)(=O)C1CC1 (racemic) [Compound 268, N-(3-Chloro-4-fluorophenyl)-7-(cyclopropanesulfonamido)-6,7-dihydro-5H-cyclopenta[c]pyridine-4-carboxamide] | 8.2 µM
CNC(=O)NC1c2c(F)ccc(C(=O)Nc3ccc(F)c(Cl)c3)c2CC1OC (stereo not shown) [Compound 235, N-(3-chloro-4-fluorophenyl)-7-fluoro-2-methoxy-1-(3-methylureido)-2,3-dihydro-1H-indene-4-carboxamide] | 4.5 µM
O=C(N[C@H]1CCc2c(C(=O)Nc3ccc(F)c(Cl)c3)ccc(F)c21)OCc1ncco1 [Compound 94, O-Oxazol-2-ylmethyl, N—(S)-(4-((3-chloro-4-fluorophenyl)carbamoyl)-7-fluoro-2,3-dihydro-1H-inden-1-yl) carbamate] | 0.07 µM
COC(=O)N[C@H]1CCc2c(C(=O)Nc3ccc(F)c(Cl)c3)ccc(F)c21 [Compound 19, O-Methyl, N—(S)-(4-((3-chloro-4-fluorophenyl)carbamoyl)-7-fluoro-2,3-dihydro-1H-inden-1-yl) carbamate] | 0.17 µM

Same assay, conditions: Hepatitis B virus, HepDE19, 168 h, read-out: DE-19 bDNA EC50 (μM), HepDE19 cells, inhibition of rcDNA formation, 7 day incubation, top concentration 25 μM

Compound | EC50
O=C(N[C@H]1CCc2c(C(=O)Nc3ccc(F)c(Cl)c3)ccc(F)c21)OCC(F)(F)F [Compound 88, O-2,2,2-Trifluoroethyl, N—(S)-(4-((3-chloro-4-fluorophenyl)carbamoyl)-7-fluoro-2,3-dihydro-1H-inden-1-yl) carbamate] | 0.21 µM
COCCCOC(=O)N[C@H]1CCc2c(C(=O)Nc3ccc(F)c(Cl)c3)ccc(F)c21 [Compound 114, O-3-Methoxypropyl, N—(S)-(4-((3-chloro-4-fluorophenyl)carbamoyl)-7-fluoro-2,3-dihydro-1H-inden-1-yl) carbamate] | 0.47 µM
CNC(=O)N1CCC(COC(=O)N[C@H]2CCc3c(C(=O)Nc4ccc(F)c(Cl)c4)ccc(F)c32)CC1 [Compound 176, O-(1-(Methylcarbamoyl)piperidin-4-yl)methyl, N—(S)-(4-((3-chloro-4-fluorophenyl)carbamoyl)-7-fluoro-2,3-dihydro-1H-inden-1-yl) carbamate] | 0.64 µM
O=C(N[C@H]1CCc2c(C(=O)Nc3ccc(F)c(Cl)c3)ccc(F)c21)OCC1CNC(=O)O1 (stereo partly drawn) [Compound 132, O-(2-Oxooxazolidin-5-yl)methyl, N—((S)-4-((3-chloro-4-fluorophenyl)carbamoyl)-7-fluoro-2,3-dihydro-1H-inden-1-yl) carbamate] | 0.22 µM
COc1cccc(COC(=O)N[C@H]2CCc3c(C(=O)Nc4ccc(F)c(Cl)c4)ccc(F)c32)n1 [Compound 44, O-(6-Methoxypyridin-2-yl)methyl, N—(S)-(4-((3-chloro-4-fluorophenyl)carbamoyl)-7-fluoro-2,3-dihydro-1H-inden-1-yl) carbamate] | 0.38 µM
O=C(N[C@H]1CCc2c(C(=O)Nc3ccc(F)c(Cl)c3)ccc(F)c21)OCC1CCN(CC(F)(F)F)CC1 [Compound 62, O-(1-(2,2,2-Trifluoroethyl)piperidin-4-yl)methyl, N—(S)-(4-((3-chloro-4-fluorophenyl)carbamoyl)-7-fluoro-2,3-dihydro-1H-inden-1-yl) carbamate] | 1.8 µM
O=C(N[C@H]1CCc2c(C(=O)Nc3ccc(F)c(Cl)c3)ccc(F)c21)OCCCn1ccnc1 [Compound 125, O-3-(1H-Imidazol-1-yl)propyl, N—(S)-(4-((3-chloro-4-fluorophenyl)carbamoyl)-7-fluoro-2,3-dihydro-1H-inden-1-yl) carbamate Hydrochloride] | 0.28 µM
CNC(=O)N[C@H]1CCc2c(C(=O)Nc3ccc(F)c(Cl)c3)ccc(F)c21 [Compound 20, (S)—N-(3-Chloro-4-fluorophenyl)-7-fluoro-1-(3-methylureido)-2,3-dihydro-1H-indene-4-carboxamide] | 0.32 µM
O=C(N[C@H]1CCc2c(C(=O)Nc3ccc(F)c(Cl)c3)ccc(F)c21)OCc1cnccn1 [Compound 78, O-Pyrazin-2-ylmethyl, N—(S)-(4-((3-chloro-4-fluorophenyl)carbamoyl)-7-fluoro-2,3-dihydro-1H-inden-1-yl) carbamate] | 0.09 µM
COC(=O)NC1CSc2c(C(=O)Nc3ccc(F)c(Cl)c3)cccc21 (stereo not shown) [Compound 37, O-Methyl, N-(7-((3-chloro-4-fluorophenyl)carbamoyl)-2,3-dihydrobenzo[b]thiophen-3-yl) carbamate] | 0.95 µM
O=C1CC[C@H](COC(=O)N[C@H]2CCc3c(C(=O)Nc4ccc(F)c(Cl)c4)ccc(F)c32)N1 [Compound 9, O—((R)-5-Oxopyrrolidin-2-yl)methyl, N—((S)-4-((3-chloro-4-fluorophenyl)carbamoyl)-7-fluoro-2,3-dihydro-1H-inden-1-yl) carbamate] | 0.58 µM
O=C(N[C@H]1CCc2c(C(=O)Nc3ccc(F)c(Cl)c3)ccc(F)c21)OC[C@@H]1CCCN1 [Compound 69, O—(S)-Pyrrolidin-2-ylmethyl, N—((S)-4-((3-chloro-4-fluorophenyl)carbamoyl)-7-fluoro-2,3-dihydro-1H-inden-1-yl) carbamate Hydrochloride] | 5.1 µM

Same assay, conditions: read-out: DE-19 bDNA EC50; HepDE19 cells, inhibition of rcDNA formation, 7 day incubation, top concentration 25 μM

Compound | EC50
COC(=O)NC1COc2c(C(=O)Nc3ccc(F)c(F)c3)cccc21 (stereo not shown) [Compound 4, O-Methyl, N-(7-((3,4-difluorophenyl)carbamoyl)-2,3-dihydrobenzofuran-3-yl) carbamate] | 5.3 µM
COC(=O)NC1COc2c(C(=O)Nc3ccc(F)c(C)c3)ccc(F)c21 (stereo not shown) [Compound 201, O-Methyl, N-(4-fluoro-7-((4-fluoro-3-methylphenyl)carbamoyl)-2,3-dihydrobenzofuran-3-yl) carbamate] | 5.5 µM
